Assays:
Type in all cases: biochemical
3′-OH nucleotides [1] = experiment: Purification (polishing) of heated 3′-blocked nucleotides with Klenow polymerase and different templates, then 2×151 cycle sequencing on MINISEQ (FIG. 8); details: Klenow polymerase, 30 minutes at 37° C., nucleotides heated 5 hours at 55° C.
Method: FIG. 8 is a plot of phasing and prephasing during polymerization of 3′-blocked nucleotides that were purified using different conditions. More specifically, an aqueous solution of 3′-blocked nucleotides blocked with azidomethyl groups was heated for 5 hours at 55° C. so as to simulate nucleotide stress conditions and convert a portion of the 3′-blocked nucleotides to 3′-OH nucleotides. The resulting aqueous mixture of 3′-blocked nucleotides and 3′-OH nucleotides was purified for 30 minutes at 37° C. in a manner such as described with reference to FIGS. 1A-1B and 3, using the Klenow polymerase and different conditions, e.g., different templates, and different concentrations of templates, such as described further below. The purified 3′-blocked nucleotides then were used in a sequencing reaction, using 2×151 cycle runs on the MINISEQ® sequencing-by-synthesis instrument (Ilumina, Inc., San Diego Calif.) using the PhiX library as templates. The purified nucleotides behaved similarly in the two sequencing reads (R1 and R2). The accumulated prephasing over 150 cycles of read 1 (R1 C150% prephasing weight) and the accumulated phasing over 150 cycles of read 1 (R1 C150% phasing weight) after 3′-blocked nucleotide polymerization was measured for the purified 3′-blocked nucleotides, as well as for heated and unpurified 3′-blocked nucleotides and for unheated 3′-blocked nucleotides.
The effect of concentration of a first example template was determined. More specifically, the next data points to the right (“50 nM”) correspond to polymerization of 3′-blocked nucleotides that had been heated as indicated above and were purified using 50 nM of a 20N template of sequence 5′-NNNNNNNNNNNNNNNNNNNNCGGCCATATAACTGGTAGCTT-3′ (SEQ ID NO: 5), whereN are degenerated bases, combined in equimolar amount with a primer oligonucleotide sequence AAGCTACCAGTTATATGGCCG (SEQ ID NO: 6). […] From a comparison of the data points corresponding to different concentrations of the 20N template, it may be understood that with increased concentration of 20N template, prephasing approached a similar prephasing as for the unheated (“std”) 3′-blocked nucleotides.
Different templates were used to determine their effect on phasing and prephasing. More specifically, the next data points to the right (“4N”) correspond to polymerization of 3′-blocked nucleotides that had been heated as indicated above and were purified using 200 nM of a 4N template of sequence 5′-NNN NCGGC CAT ATA ACT GGT AGCTT-3′ (SEQ ID NO: 7) where N are degenerated bases, combined in equimolar amount with primer oligonucleotide sequence AAGCTACCAGTTATATGGCCG (SEQ ID NO: 6). […] The next data points to the right (“6N”) correspond to polymerization of 3′-blocked nucleotides that had been heated as indicated above and were purified using 200 nM of a 6N template of sequence 5′-[…]-3′ (SEQ ID NO: 8), combined in equimolar amount with primer oligonucleotide sequence AAGCTACCAGTTATATGGCCG (SEQ ID NO: 6).
The next data points to the right correspond to polymerization of 3′-blocked nucleotides that had been heated as indicated above and were purified using 200 nM of a mixture of 4 hairpin templates, each template corresponding to one base, of respective sequences GGGGGGGGGGGGCGGCCATATAACTGGTCACTCCAGTTATATGGCCG (hairpin G) (SEQ ID NO: 9), TTTTTTTTTTTTCGGCCATAT AACTGG TCACTCCAGTTATATGGCCG (hairpin T) (SEQ ID NO: 10), CCCCCCCCCCCCCGGCCATAT AACTGG TCACTCCAGTTATATGGCCG (hairpin C) (SEQ ID NO: 11), AAAAAAAAAAAACGGCCATATAACTGGTCACTCCAGTTATATGGCCG (hairpin A) (SEQ ID NO: 12). The hairpin templates were added to the reaction at the same concentration to reach a final concentration of 200 nM of DNA. […]

3′-OH nucleotides [2] = experiment: Purification of heated 3′-blocked nucleotides with different polymerases and temperatures, then 2×26 cycle sequencing on MINISEQ (FIG. 9); details: 30 minutes, hp template with 20 degenerated bases, nucleotides heated 5 hours at 55° C.
Method: FIG. 9 is a plot of phasing and prephasing during polymerization of 3′-blocked nucleotides that were purified to remove 3′-OH nucleotides using different polymerases and different temperatures. More specifically, similarly as for Example 1, an aqueous solution of 3′-blocked nucleotides blocked with azidomethyl groups was heated for 5 hours at 55° C. so as to convert a portion of the 3′-blocked nucleotides to 3′-OH nucleotides. The resulting aqueous mixture of 3′-blocked nucleotides and 3′-OH nucleotides was purified for 30 minutes in a manner such as described with reference to FIGS. 1A-1B and 3, using an hp oligomer template with 20 degenerated bases (meaning that at each position, one of the four bases could be incorporated; since this is random, each oligomer should have a different sequence) and different polymerases and different temperatures such as described further below. The purified 3′-blocked nucleotides then were polymerized using 2×26 cycle runs on the MINISEQ® sequencing-by-synthesis instrument (Illumina, Inc., San Diego Calif.) using the PhiX library as templates. The slope adjusted prephasing and phasing were measured for the purified 3′-blocked nucleotides, as well as for heated and unpurified 3′-blocked nucleotides and for unheated 3′-blocked nucleotides.
Different polymerases were used at different temperatures to determine their effect on phasing and prephasing. More specifically, the next data points to the right (“Vent polishing 60 C”) correspond to polymerization of 3′-blocked nucleotides that had been heated as indicated above and were purified using the Deep Vent polymerase at 60° C. […] From a comparison of performance of the different polymerases, it may be understood that using the Deep Vent polymerase at 60° C. provided similar phasing and prephasing as for the lower baseline “no stress” in which the 3′-blocked nucleotides were not heated. Additionally, it may be understood that using the Taq polymerase at the experimental temperatures provided even less prephasing than for the lower baseline “no stress” in which the 3′-blocked nucleotides were not heated. Accordingly, it may be understood that the Taq polymerase removed from solution not only the 3′-OH nucleotides that were generated using heating, but also at least some of the 3′-OH nucleotides that were present even without heating. Under the particular experimental conditions in this example, the Taq polymerase appeared to provide better performance than Deep Vent, and neither Deep Vent or Taq appeared to detrimentally influence phasing.

3′-OH nucleotides [3] = experiment: Purification with Taq polymerase at different temperatures and nucleotide concentrations, then 2×26 cycle sequencing on MISEQ (FIG. 11); details: 30 minutes, 0.5 mM or 1 mM nucleotides, control about 0.1%
Method: FIG. 11 is a plot of prephasing during polymerization of 3′-blocked nucleotides that were purified to remove 3′-OH nucleotides using different temperatures and concentrations of 3′-blocked nucleotides. Similarly as for Example 1, an aqueous solution of 3′-blocked nucleotides blocked with azidomethyl groups was heated for 5 hours at 55° C. so as to convert a portion of the 3′-blocked nucleotides to 3′-OH nucleotides. The resulting aqueous mixture of 3′-blocked nucleotides and 3′-OH nucleotides was purified for 30 minutes in a manner such as described with reference to FIGS. 1A-1B and 3, using 10× of an hp oligomer template with 20 degenerated bases (NNNNNNNNNNNNNNNNNNNN CGGCCATATAACTGGTAGCTTTTTTAAGCTACC AGTT AT ATG GCC G (SEQ ID NO. 1)), 10× of the Taq polymerase and either 0.5 mM or 1 mM of the heated 3′-blocked nucleotides, at a variety of temperatures. The purified 3′-blocked nucleotides then were polymerized using 2×26 cycle runs on the MISEQ® sequencing-by-synthesis instrument (Illumina, Inc., San Diego Calif.) using the PhiX library as templates. The normalized prephasing was measured for the purified 3′-blocked nucleotides, as well as for heated and unpurified Y-blocked nucleotides and for unheated Y-blocked nucleotides. […]

Molecule: 5′-NNNNNNCGGCCATATAACTGGTAGCTT-3′ (degenerate-base DNA template, chemistry not given here) [6N template]
- R1 C150 phasing weight (3′-OH nucleotides [1]; 200 nM template): about 15%
- R1 C150 prephasing weight (3′-OH nucleotides [1]; 200 nM template): about 17.5%

Molecule: Taq polymerase: Thermus aquaticus DNA polymerase I, thermostable polishing polymerase
- normalized phasing (3′-OH nucleotides [2]; purified at 37° C.): about 0.13%
- normalized prephasing (3′-OH nucleotides [2]; purified at 37° C.): about 0.09%
- normalized phasing (3′-OH nucleotides [2]; purified at 45° C.): about 0.12%
- normalized prephasing (3′-OH nucleotides [2]; purified at 45° C.): about 0.08%
- normalized phasing (3′-OH nucleotides [2]; purified at 60° C.): about 0.12%
- normalized prephasing (3′-OH nucleotides [2]; purified at 60° C.): about 0.09%
- normalized prephasing (3′-OH nucleotides [3]; purified at 53° C.): significantly lower than the control
- normalized prephasing (3′-OH nucleotides [3]; purified at 60° C.): significantly lower than the control

Molecule: 5′-NNN NCGGC CAT ATA ACT GGT AGCTT-3′ (DNA NNNNCGGCCATATAACTGGTAGCTT; degenerate-base DNA template for purifying nucleotides, chemistry not given here) [4N template]
- R1 C150 phasing weight (3′-OH nucleotides [1]; 200 nM template): about 18.5%
- R1 C150 prephasing weight (3′-OH nucleotides [1]; 200 nM template): about 21%

Molecule: 5′-NNNNNNNNNNNNNNNNNNNNCGGCCATATAACTGGTAGCTT-3′ [20N template]
- R1 C150 phasing weight (3′-OH nucleotides [1]; 50 nM template): about 12%
- R1 C150 prephasing weight (3′-OH nucleotides [1]; 50 nM template): about 24%
- R1 C150 phasing weight (3′-OH nucleotides [1]; 200 nM template): about 18.5%
- R1 C150 prephasing weight (3′-OH nucleotides [1]; 200 nM template): about 16.5%
- R1 C150 phasing weight (3′-OH nucleotides [1]; 300 nM template): about 19%
- R1 C150 prephasing weight (3′-OH nucleotides [1]; 300 nM template): about 13%
- R1 C150 phasing weight (3′-OH nucleotides [1]; 500 nM template): about 23%
- R1 C150 prephasing weight (3′-OH nucleotides [1]; 500 nM template): about 17%

B1: NNNNNNNNNNNNNNNNNNNN CGGCCATATAACTGGTAGCTTTTTTAAGCTACC AGTT AT ATG GCC G (nucleic acid)
DNA: NNNNNNNNNNNNNNNNNNNNCGGCCATATAACTGGTAGCTTTTTTAAGCTACCAGTTATATGGCCG
modifications: hairpin template with 20 degenerate bases, chemistry not given here
- R1 C150 phasing weight (3′-OH nucleotides [1]; 200 nM template): about 12%
- R1 C150 prephasing weight (3′-OH nucleotides [1]; 200 nM template): about 16%
